In US20100247593A1, “NOVEL COMPOUNDS AND PHARMACEUTICAL PREPARATIONS” (priority 2007, published 2010):

What was measured:
[1] = test system: male mice; assay: Mice sexual behaviour test (number of mounts); format: in vivo
[2] = Stability in CDCl3 solution according to NMR spectra; format: physicochemical; details: CDCl3, 25° C.
Experimental: NMR spectra were recorded with a Varian UNITY INOVA 600 MHz spectrometer equipped with a cryoprobe in CDCl3 solution at 25° C. Chemical shifts are reported in ppm relative to residual solvent signal (δ(^1H) 7.25 ppm, δ(^13C) […]). Two-dimensional spectra recorded included DQF-COSY, NOESY, TOCSY, sensitivity-enhanced ^13C-HSQC and ^13C-^1H HMBC. Pulsed-field gradients were used for all ^13C correlation spectra. The NOESY mixing time was 800 ms, the TOCSY one 70 ms. ^13C-HMBC spectra were recorded with coupling evolution delay for the generation of multiple-bond correlations set to 62.5 ms. All 2D spectra were run with 4096*1024 points data matrix, giving τ2max=250 ms for ^1H nucleus in acquisition dimension and τ1max=100 ms for ^1H or τ1max=50 ms for ^13C for indirect dimension. Prior to Fourier transform the data matrix was zero-filled twice and multiplication by shifted sine-bell window function applied. For ^1H-^13C HMBC the magnitude spectra were calculated. Graphs from the spectra recorded are shown in drawing section FIGS. 15-27.

Structure (SMILES) | increase of number of mounts counted during the 3 hour period ([1]; subcutaneous 0.4 mg/kg x3 days, D4) | sexual activity (number of mounts over a 3 hour period) ([1]; subcutaneous in sun-flower oil x3 days, lowest dose (0.004 mg/kg)) | sexual activity (number of mounts over a 3 hour period) ([1]; subcutaneous in sun-flower oil x3 days, two highest doses (0.4 and 0.04 mg/kg), D-4, D-7, D-14) | activity (Umnt) = 1/EC50 ([1]; subcutaneous x3 days, 7th day as basis) | time course of the effect on number of mounts ([1]; subcutaneous x3 days, tested D-4, D-7, D-14) | stability in CDCl3 solution according to the NMR spectra [2] | sexual activity (number of mounts over a 3 hour period) ([1]; subcutaneous in sun flower-oil x3 days, highest dose (4 mg/kg), all days tested (D-4, D-7, D-14)) | sexual activity (number of mounts over a 3 hour period) ([1]; subcutaneous x3 days, two lower doses (0.4 and 0.04 mg/kg))
COC(=O)CC1C2(C)CC34OC5(C)OC67C(CC(=O)OC6C3(OC(=O)C(C)C)C2OC(=O)C(C)C)C(C)(C(=O)c2ccoc2)CCC7(O5)C14C (stereo not drawn) [R306] | about 3.5 fold | tendency of increase | significant increases | about 15 U/mg | peaked at D7, while clear effects were seen also at D14 | stable during several weeks | – | –
COC(=O)CC1C2(C)CC34OC5(C)OC67C(C(C(=O)C(C)C)C(=O)OC6C3(O)C2OC(C)=O)C(C)(C(OC(C)=O)c2ccoc2)CCC7(O5)C14C (stereo not drawn) [R310] | – | – | – | – | – | consisted of two isomers which slowly interchanged | Significant increases | significantly increased only on D-4
